Test systems include CCRF-CEM; EKVX; HCC 2998; HL-60; HOP-62; HOP-92; Hs-578T; K562; MCF7; MDA-N; Malme-3M; NCI-H460; OVCAR-3; OVCAR-8; PC-3; SF-539; SK-MEL-5; SNB-19; SNB-75; UO-31.
Common to all, as to assay: growth of human tumour cells (NCI), 48 h

Each structure is given as a SMILES string.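 Values below derive from 48-hour exposures of cells grown in 96-well plates, with endpoints linearly interpolated between the two concentrations bracketing the appropriate inhibition level. GI50 = concentration required for 50% inhibition of growth.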 The source made the active and inactive calls. Cut-off read from the data, not from the text of the source: active = GI50 up to about 1.1 µM and inactive = higher.

As to `Cc1cccc(-c2cc(O)c3c(C)cc(C)nc3n2)c1`, the GI50 in the experiment on CCRF-CEM is 3.45 µM (inactive); in the experiment on EKVX, 22 µM (inactive); in the experiment on HCC 2998, 4.9 µM (inactive); with HL-60 it was 0.838 µM (active); with HOP-62 it was 4.52 µM (inactive); in the experiment with HOP-92, 35.4 µM (inactive). Besides, the GI50 in the experiment with Hs-578T was 2.52 µM (inactive); in the experiment on K562, 0.585 µM (active); with MCF7, 0.962 µM (active); in the experiment on MDA-N, 0.313 µM (active); in the experiment with Malme-3M it was 2.31 µM (inactive); with NCI-H460 it was 2.95 µM (inactive). Moreover, the GI50 in the experiment on OVCAR-3 was 1.43 µM (inactive); with OVCAR-8, 5.58 µM (inactive); in the experiment with PC-3, 2.43 µM (inactive); with SF-539 it was 2.75 µM (inactive); with SK-MEL-5, 1.05 µM (active); in the experiment with SNB-19, 4.38 µM (inactive). For the same molecule, the GI50 in the experiment with SNB-75 is 1.99 µM (inactive); in the experiment on UO-31, 9.91 µM (inactive).
For the molecule `Oc1ccccc1/C=N/N1C(=S)N(c2ccccc2)C(=N\c2ccccc2)/C1=N/c1ccccc1`, the GI50 with CCRF-CEM was > 37 µM (inactive); in the experiment on EKVX, 14.9 µM (inactive); in the experiment with HCC 2998 it was 23.1 µM (inactive); in the experiment on HL-60 it was 30 µM (inactive); with HOP-62, 9.35 µM (inactive); with HOP-92, 4.57 µM (inactive). For the same molecule, the GI50 was 4.53 µM (inactive) in the experiment with Hs-578T; 28.6 µM (inactive) in the experiment on K562; > 100 µM (inactive) with MCF7; 18.5 µM (inactive) with MDA-N; 22.4 µM (inactive) with Malme-3M; 12.4 µM (inactive) in the experiment with NCI-H460. Further, the GI50 in the experiment with OVCAR-3 is 15 µM (inactive); in the experiment with OVCAR-8 it was 4.97 µM (inactive); in the experiment with PC-3, 16.9 µM (inactive); in the experiment on SF-539, 4.81 µM (inactive); in the experiment with SK-MEL-5, 18.2 µM (inactive); with SNB-19, 6.47 µM (inactive). For the same molecule, the results for the GI50 in the experiment with SNB-75 and in the experiment with UO-31 were 3.21 µM (inactive) and 14 µM (inactive), respectively.
On to `COc1ccc(-c2c(CN3CCOCC3)sc3nc4ccccc4n23)cc1`, for which the GI50 in the experiment on CCRF-CEM is 0.0435 µM (active); with EKVX it was 15.2 µM (inactive); with HCC 2998 it was 19 µM (inactive); with HL-60 it was 9.42 µM (inactive); with HOP-62 it was 31 µM (inactive); in the experiment on HOP-92 it was 23.1 µM (inactive). For the same molecule, the GI50 was 21.6 µM (inactive) in the experiment with Hs-578T; 3.31 µM (inactive) in the experiment with K562; 8.32 µM (inactive) in the experiment with MCF7; 2.06 µM (inactive) in the experiment on MDA-N; 3.9 µM (inactive) in the experiment on Malme-3M; 8.41 µM (inactive) in the experiment on NCI-H460. For the same molecule, the GI50 with OVCAR-3 is 9.86 µM (inactive); in the experiment on OVCAR-8 it was 26.5 µM (inactive); with PC-3, 9.33 µM (inactive); in the experiment on SF-539 it was 16.8 µM (inactive); with SK-MEL-5, 6.43 µM (inactive); in the experiment on SNB-19 it was 11.5 µM (inactive). Further, the GI50 in the experiment with SNB-75 is 14.3 µM (inactive); in the experiment with UO-31 it was 30.3 µM (inactive).
For `Cn1c2ccccc2c2[nH]c3ccccc3c(=O)c21`, the GI50 with CCRF-CEM was > 100 µM (inactive); in the experiment with EKVX, > 100 µM (inactive); in the experiment with HCC 2998, > 100 µM (inactive); in the experiment on HL-60 it was > 100 µM (inactive); in the experiment with HOP-62, > 100 µM (inactive); with HOP-92 it was 65.5 µM (inactive). Besides, the GI50 in the experiment with Hs-578T, with K562, in the experiment with MCF7, in the experiment on MDA-N, in the experiment with Malme-3M and in the experiment on NCI-H460 was > 100 µM (inactive) in each case. The GI50 is > 100 µM (inactive) in the experiment on OVCAR-3; > 100 µM (inactive) with OVCAR-8; > 100 µM (inactive) with PC-3; > 100 µM (inactive) with SF-539; 46.2 µM (inactive) in the experiment with SK-MEL-5; 93.3 µM (inactive) in the experiment on SNB-19. Also, the GI50 was 69.2 µM (inactive) in the experiment on SNB-75 and > 100 µM (inactive) in the experiment on UO-31.
With `CC(=O)CC1(O)C(=O)c2c(Br)sc(Br)c2C1=O`, the GI50 with CCRF-CEM is 15.1 µM (inactive); with EKVX, 20 µM (inactive); in the experiment on HCC 2998, 17.8 µM (inactive); with HL-60 it was 20.6 µM (inactive); with HOP-62, 29 µM (inactive); in the experiment with HOP-92, 18.8 µM (inactive). For the same molecule, the GI50 in the experiment on Hs-578T is 31.3 µM (inactive); in the experiment with K562 it was 32.8 µM (inactive); in the experiment with MCF7 it was 30.1 µM (inactive); with MDA-N, 22.3 µM (inactive); in the experiment on Malme-3M it was 18.1 µM (inactive); in the experiment on NCI-H460 it was 45.1 µM (inactive). For the same molecule, the GI50 in the experiment with OVCAR-3 is 16.9 µM (inactive); with OVCAR-8, 23 µM (inactive); in the experiment with PC-3, 20.6 µM (inactive); with SF-539, 23.6 µM (inactive); in the experiment with SK-MEL-5, 18.4 µM (inactive); in the experiment with SNB-19 it was 55.5 µM (inactive). Further, the values for the GI50 with SNB-75 and with UO-31 were 59.7 µM (inactive) and 32.2 µM (inactive), respectively.
Turning to `O=C(c1cc2ccccc2[nH]1)N1C2CCC1CN(CCOC(c1ccc(F)cc1)c1ccc(F)cc1)CC2` (stereo not given), the GI50 with CCRF-CEM was 6.01 µM (inactive); in the experiment with EKVX, 8.55 µM (inactive); in the experiment with HCC 2998, > 100 µM (inactive); in the experiment with HL-60 it was 6.85 µM (inactive); in the experiment with HOP-62 it was > 100 µM (inactive); in the experiment with HOP-92, > 100 µM (inactive). Besides, the GI50 with Hs-578T was > 100 µM (inactive); in the experiment on K562 it was 5.15 µM (inactive); with MCF7 it was 7.06 µM (inactive); with MDA-N it was > 100 µM (inactive); in the experiment with Malme-3M, > 100 µM (inactive); in the experiment with NCI-H460, 4.48 µM (inactive). Moreover, the GI50 was 9.02 µM (inactive) in the experiment with OVCAR-3; > 100 µM (inactive) in the experiment with OVCAR-8; 2.79 µM (inactive) in the experiment on PC-3; 19.1 µM (inactive) with SF-539; 5.77 µM (inactive) with SK-MEL-5; > 100 µM (inactive) with SNB-19. Moreover, the GI50 with SNB-75 is > 100 µM (inactive); with UO-31, 3.22 µM (inactive).
Regarding `O=P1(c2ccccc2)C(c2ccccc2)=CC=C1c1ccccc1`, the GI50 with CCRF-CEM was 12.3 µM (inactive); with EKVX, 24.2 µM (inactive); in the experiment on HCC 2998 it was 25.2 µM (inactive); with HL-60, 2.28 µM (inactive); with HOP-62 it was 44.4 µM (inactive); in the experiment on HOP-92 it was 12.1 µM (inactive). In addition, the GI50 is 37.8 µM (inactive) in the experiment on Hs-578T; 3.95 µM (inactive) in the experiment on K562; 10.4 µM (inactive) in the experiment on MCF7; 10.8 µM (inactive) with MDA-N; 27.3 µM (inactive) in the experiment on Malme-3M; 11.6 µM (inactive) in the experiment with NCI-H460. The GI50 in the experiment on OVCAR-3 was 12.2 µM (inactive); with OVCAR-8, 14.6 µM (inactive); in the experiment on PC-3 it was 15.3 µM (inactive); in the experiment on SF-539, 59 µM (inactive); in the experiment with SK-MEL-5, 6.24 µM (inactive); in the experiment with SNB-19 it was > 100 µM (inactive). Also, the values for the GI50 in the experiment on SNB-75 and in the experiment with UO-31 were 20.7 µM (inactive) and 13.7 µM (inactive), respectively.
In the case of `C/C(=N/NC(=S)Nc1ccc(C)cc1)c1ccccn1`, the GI50 with CCRF-CEM was < 0.0124 µM (active); with EKVX it was 0.0601 µM (active); in the experiment with HCC 2998, 3.48 µM (inactive); in the experiment with HL-60 it was < 0.0132 µM (active); with HOP-62, 0.029 µM (active); with HOP-92, 0.719 µM (active). Besides, the GI50 was 0.859 µM (active) in the experiment on Hs-578T; < 0.0127 µM (active) in the experiment with K562; 0.0146 µM (active) in the experiment on MCF7; 1.1 µM (active) in the experiment with MDA-N; 0.505 µM (active) with Malme-3M; 0.263 µM (active) in the experiment with NCI-H460. The GI50 is 0.0179 µM (active) in the experiment on OVCAR-3; 0.0258 µM (active) with OVCAR-8; < 0.0153 µM (active) in the experiment with PC-3; 0.815 µM (active) in the experiment on SF-539; 0.12 µM (active) with SK-MEL-5; 2.29 µM (inactive) in the experiment on SNB-19. The GI50 in the experiment on SNB-75 was 1.26 µM (inactive); in the experiment with UO-31, 0.266 µM (active).
Regarding `CC(C)C1CC(CO)(CNc2nc(N)nc(Cl)c2C=O)C1` (stereo not given), the GI50 is 2.34 µM (inactive) with CCRF-CEM; 4.51 µM (inactive) in the experiment on EKVX; 1.97 µM (inactive) in the experiment on HCC 2998; 1.57 µM (inactive) with HL-60; 18.8 µM (inactive) in the experiment on HOP-62; 2.28 µM (inactive) in the experiment with HOP-92. The GI50 was 4.38 µM (inactive) in the experiment on Hs-578T; 2.56 µM (inactive) in the experiment with K562; 10.3 µM (inactive) in the experiment on MCF7; 2.85 µM (inactive) in the experiment with MDA-N; 11.1 µM (inactive) with Malme-3M; 8.22 µM (inactive) with NCI-H460. For the same molecule, the GI50 was 3.47 µM (inactive) with OVCAR-3; 2.75 µM (inactive) with OVCAR-8; 2.1 µM (inactive) in the experiment on PC-3; 13.7 µM (inactive) in the experiment with SF-539; 6.89 µM (inactive) in the experiment on SK-MEL-5; 6.04 µM (inactive) with SNB-19. In addition, the GI50 was 7.87 µM (inactive) in the experiment with SNB-75 and 6.27 µM (inactive) in the experiment on UO-31.
On to `c1cc2nnc1SCCSCCSc1ccc(nn1)SCCSCCS2`, for which the GI50 with CCRF-CEM was > 100 µM (inactive); with EKVX, > 100 µM (inactive); in the experiment on HCC 2998, > 100 µM (inactive); in the experiment with HL-60, > 100 µM (inactive); in the experiment with HOP-62, 31 µM (inactive); in the experiment with HOP-92, > 100 µM (inactive). Moreover, the GI50 with Hs-578T, with K562, with MCF7, with MDA-N, with Malme-3M and with NCI-H460 was > 100 µM (inactive) each time. Also, the GI50 in the experiment with OVCAR-3 is > 100 µM (inactive); in the experiment on OVCAR-8, > 100 µM (inactive); in the experiment on PC-3 it was > 100 µM (inactive); in the experiment on SF-539, 25.4 µM (inactive); with SK-MEL-5, > 100 µM (inactive); in the experiment with SNB-19, > 100 µM (inactive). Further, the figures for the GI50 in the experiment on SNB-75 and with UO-31 were 18.5 µM (inactive) and > 100 µM (inactive), respectively.

The values above are taken from ChEMBL document CHEMBL1201862, “PubChem BioAssay data set” (2004).
